From US20050234073A1, “Methods of inhibiting inflammation” (priority 2003, published 2005)

Legend:
HepG2 cells = conditions: cited from earlier work
C1Rd cells = test: C1Rd cell presentation of α-galcer to DN32 NKT cells (IL-2 ELISA); format: cell-based, human; conditions: C1Rd cells cultured 5 days with inhibitor
Protocol: FIG. 20D is a bar chart showing IL-2 production in C1Rd cells cultured with BMS212122 or vehicle for 5 days that were incubated with α-galcer for 3 hours IL-2 concentrations were measured by ELISA of 24 hour culture supernatants. *, p<0.02.
(§1) APCs were incubated with 100 ng/mL α-galcer (kindly provided by Dr. H. Ploegh) for 3 hours, washed three times in PBS and aliquoted into a 96 well plate at 10^6 cells/mL. DN32 cells were added at 1:1 E:T ratio unless otherwise indicated. CD4^+ cells were isolated from spleens of OT-II transgenic mice using positive selection on CD4 magnetic beads (Miltenyi Biotec) and incubated with APCs and 100 μg/mL ovalbumin. The 24.8 NKT cell line was incubated with APCs in the absence of added antigen at E:T=2:1 unless otherwise indicated. Mouse IL-2 production was assessed by ELISA (OptEIA, BD PharMingen) of 24 or 40 hour culture supernatants. APCs were treated with BMS212122 (10 uM dissolved in DMSO; kindly provided by Bristol Myers Squibb, New Jersey) as indicated and washed prior to addition of T or NKT cells. […]
C1Rd is a human B cell line transfected with human CD1d. […] Incubation of C1Rd cells with BMS212122, but not the vehicle, inhibited the presentation of α-galcer as determined by a reduction in IL-2 secretion (FIG. 20D).

BMDCs = test: Bone marrow derived dendritic cell presentation to 24.8 and DN32 NKT cells (IL-2 ELISA); format: cell-based, mouse; conditions: BMDCs cultured with inhibitor from day 6 to day 10
Protocol: FIG. 17D is a line graph showing IL-2 production in bone marrow derived dendritic cells incubated for 4 days with BMS212122 (◯) or vehicle (●) were treated with α-galcer for 3 hours, washed and co cultured with DN32. IL-2 concentrations were measured by ELISA of 24 hour culture supernatants. *, p<0.01.
APCs were incubated with 100 ng/mL α-galcer (kindly provided by Dr. H. Ploegh) for 3 hours, washed three times in PBS and aliquoted into a 96 well plate at 10^6 cells/mL. DN32 cells were added at 1:1 E:T ratio unless otherwise indicated. CD4^+ cells were isolated from spleens of OT-II transgenic mice using positive selection on CD4 magnetic beads (Miltenyi Biotec) and incubated with APCs and 100 μg/mL ovalbumin. […] Mouse IL-2 production was assessed by ELISA (OptEIA, BD PharMingen) of 24 or 40 hour culture supernatants. […]
Bone marrow was extracted from the femurs of C57BL6 or MTPmx1cre mice, washed once in PBS and resuspended in R10 supplemented with culture supernatant from murine GM-CSF transfected cells for a final concentration of 200 U/mL GM-CSF. […] Differentiated cells were harvested by gentle pipetting, washed in PBS, and analyzed by flow cytometry for surface expression of CD11c and I-A^b. […] After 5 days cells were dislodged by gentle pipetting, analyzed by flow cytometry and assayed for antigen presentation. […]

[1] = tested on: splenocytes, CD11c-positive splenic DCs and BMDCs; test: MHC class II-restricted presentation of ovalbumin to OT-II CD4+ T cells (IL-2 ELISA); format: cell-based, mouse
Protocol: FIG. 17F is a bar chart showing 11-2 production of CD11c^+ splenocytes incubated for 24 hours with BMS212122 or bone marrow derived dendritic cells incubated for 3 days with BMS212122 were washed and co cultured with 100 μg/mL ovalbumin and 100,000 CD4^+ cells from an OT-II transgenic mouse. IL-2 concentrations were measured by ELISA of 24 hour culture supernatants.
as §1

MTP = MTP (Homo sapiens, UniProt P55157); conditions: cited from earlier work
moDCs = test: Flow cytometry of surface CD1d and MHC class I on human monocyte-derived DCs; format: cell-based; conditions: moDCs after 5 days in presence of inhibitor
Text: FIG. 20F is a series of flow cytometric analysis showing surface staining of human monocyte-derived DCs were stained with 42.1 (CD1d), anti-HLA-A,B,C (MHC class I), or isotype control antibodies (dashed lines) after 4 days of differentiation in the presence of BMS212122 (gray lines) or vehicle control (black lines).
Bone marrow was extracted from the femurs of C57BL6 or MTPmx1cre mice, washed once in PBS and resuspended in R10 supplemented with culture supernatant from murine GM-CSF transfected cells for a final concentration of 200 U/mL GM-CSF. BMDCs were then cultured in bacteriological plates for 12-14 days as described. Differentiated cells were harvested by gentle pipetting, washed in PBS, and analyzed by flow cytometry for surface expression of CD11c and I-A^b. […] After 5 days cells were dislodged by gentle pipetting, analyzed by flow cytometry and assayed for antigen presentation.
Mouse cells were stained using the following antibodies: FITC-conjugated α-CD1d (1B1, PharMingen); PE-conjugated α-CD11c (HL3, PharMingen); FITC-conjugated α-1-A^d (AMS-32.1, PharMingen); PE-conjugated α-CD69 (H1.2F3, PharMingen); PE-conjugated α-B220 (RA3-6B2, PharMingen). […] Staining was performed in the presence of Via-Probe (PharMingen) and analyzed with a FACSort flow cytometer (Becton Dickinson). […]

MTP, sequence (P55157 19-894, species assumed): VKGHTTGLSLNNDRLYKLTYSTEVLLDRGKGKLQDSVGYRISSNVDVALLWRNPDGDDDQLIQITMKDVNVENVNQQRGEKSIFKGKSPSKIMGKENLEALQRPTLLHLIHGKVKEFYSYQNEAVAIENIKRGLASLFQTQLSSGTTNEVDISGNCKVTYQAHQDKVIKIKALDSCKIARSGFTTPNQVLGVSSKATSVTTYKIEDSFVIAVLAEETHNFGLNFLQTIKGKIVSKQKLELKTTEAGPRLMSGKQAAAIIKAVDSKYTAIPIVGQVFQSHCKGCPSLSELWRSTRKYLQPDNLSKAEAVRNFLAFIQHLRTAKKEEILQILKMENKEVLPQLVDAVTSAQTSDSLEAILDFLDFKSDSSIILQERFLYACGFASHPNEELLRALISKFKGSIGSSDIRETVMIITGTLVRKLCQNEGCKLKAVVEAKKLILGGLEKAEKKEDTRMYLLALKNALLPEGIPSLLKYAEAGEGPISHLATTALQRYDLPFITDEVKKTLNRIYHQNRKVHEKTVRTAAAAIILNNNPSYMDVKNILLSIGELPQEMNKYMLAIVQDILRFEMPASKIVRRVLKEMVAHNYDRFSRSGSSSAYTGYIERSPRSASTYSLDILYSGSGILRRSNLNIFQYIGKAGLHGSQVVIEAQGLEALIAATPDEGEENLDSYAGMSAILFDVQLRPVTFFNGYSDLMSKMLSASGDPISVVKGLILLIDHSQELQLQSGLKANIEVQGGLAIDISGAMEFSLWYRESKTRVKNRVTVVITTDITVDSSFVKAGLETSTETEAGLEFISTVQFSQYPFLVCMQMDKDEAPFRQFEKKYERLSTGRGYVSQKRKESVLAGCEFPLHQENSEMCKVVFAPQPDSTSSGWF
MTP, sequence (P07237 18-508 partner, species assumed): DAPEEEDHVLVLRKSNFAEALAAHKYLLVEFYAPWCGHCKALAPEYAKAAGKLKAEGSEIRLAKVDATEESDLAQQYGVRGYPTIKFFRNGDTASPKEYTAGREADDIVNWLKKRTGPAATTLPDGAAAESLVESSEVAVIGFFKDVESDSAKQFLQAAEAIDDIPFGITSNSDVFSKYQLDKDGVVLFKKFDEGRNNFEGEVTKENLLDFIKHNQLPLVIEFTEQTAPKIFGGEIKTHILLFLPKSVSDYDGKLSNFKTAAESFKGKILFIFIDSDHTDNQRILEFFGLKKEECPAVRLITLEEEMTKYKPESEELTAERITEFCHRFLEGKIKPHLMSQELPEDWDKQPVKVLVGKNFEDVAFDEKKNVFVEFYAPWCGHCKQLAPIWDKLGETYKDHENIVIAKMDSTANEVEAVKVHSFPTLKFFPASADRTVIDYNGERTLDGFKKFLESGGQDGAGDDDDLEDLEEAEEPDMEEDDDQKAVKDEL

Compound: Cc1ccc2c(nc(C)n2CCCCC2(C(=O)NCC(F)(F)F)c3ccccc3-c3ccccc32)c1NC(=O)c1ccccc1-c1ccc(C(F)(F)F)cc1 [BMS212122, 9-[4-[2,5-Dimethyl-4-[[[4′-(trifluoromethyl)[1,1′-biphenyl]-2-yl]carbonyl]amino]-1H-benzimidazol-1-yl]butyl]-N-(2,2,2-trifluoroethyl)-9H-fluorene-9-carboxamide]
- secretion of apoB from HepG2 cells (HepG2 cells): prevents secretion
- presentation of α-galcer (IL-2 secretion) (C1Rd cells): inhibited
- presentation of α-galcer to DN32 cells (BMDCs): significant effect
- presentation of ovalbumin to CD4+ MHC class II-restricted ovalbumin-specific T cells ([1]; CD11c-positive splenic DCs and BMDCs, inhibitor-treated): efficient presentation
- splenocyte presentation of ovalbumin to MHC class II-restricted T cell line OT-II ([1]; splenocytes, 24 hours inhibitor): no effect
- transfer of triglycerides, phospholipids, and cholesterol esters in vitro (MTP): blocks transfer
- surface CD1d mean fluorescence intensity (moDCs; vehicle 4.2, p<0.05): 3.3
- MHC class I mean fluorescence intensity (moDCs; vehicle 70): 76
